{
  "source": "PubChem BioAssay AID330",
  "about": "(DTP/NCI, 2004)",
  "test_system": "P388 leukemia ip, CD2F1 mice, survival T/C",
  "assay": "NCI In Vivo Anticancer Drug Screen. Data for tumor model P388 Leukemia (intraperitoneal) in CD2F1 (CDF1) mice",
  "conditions": "endpoint: median survival time, higher = longer survival",
  "in_short": "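Mice carrying the transplanted tumor received test compound or vehicle. Survival was recorded in each group, and the value is the treated-group measurement divided by that of the vehicle-treated control group.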",
  "key": {"[1]": {"conditions": "dose: 100.0 mg/kg/injection, schedule: Q01DX001 (ip), vehicle: saline with Tween-80"}, "[2]": {"conditions": "dose: 200.0 mg/kg/injection, schedule: Q01DX001 (ip), vehicle: saline with Tween-80"}, "[3]": {"conditions": "dose: 6.25 mg/kg/injection, schedule: Q01DX009 (ip), vehicle: Klucel (hydroxypropylcellulose) (HPC)"}, "[4]": {"conditions": "dose: 50.0 mg/kg/injection, schedule: Q01DX009 (ip), vehicle: Klucel (hydroxypropylcellulose) (HPC)"}},
  "note": "“And” between values parts separate entries of the source, which are not always exact repeats. Equal entries are not always repeated. Inconclusive results and toxic doses are left out.",
  "data": [
    {"smiles": "CCc1nc(NCCCCCCCCNc2nc(C)c(-c3ccccc3O)c(CC)n2)nc(C)c1-c1ccccc1O", "values": [
      {"measurement": "T/C", "setting": "dose: 100.0 mg/kg/injection, schedule: Q04DX003 (ip), vehicle: saline", "value": "93 % of control"},
      {"measurement": "T/C", "setting": "dose: 200.0 mg/kg/injection, schedule: Q04DX003 (ip), vehicle: saline", "value": "94 % of control"},
      {"measurement": "T/C", "setting": "dose: 400.0 mg/kg/injection, schedule: Q04DX003 (ip), vehicle: saline", "value": "86 % of control"}
    ]},
    {"smiles": "O=C(O)CSc1nnc(C2CCC(=O)N2Cc2ccccc2)o1", "note": "(stereo not drawn)", "values": [
      {"measurement": "T/C", "setting": "[1]", "value": "99 % of control"},
      {"measurement": "T/C", "setting": "[2]", "value": "101 % of control"},
      {"measurement": "T/C", "setting": "dose: 400.0 mg/kg/injection, schedule: Q01DX001 (ip), vehicle: saline with Tween-80", "value": "95 % of control"}
    ]},
    {"smiles": "NC(Cc1ccccc1)=S=O", "values": [
      {"measurement": "T/C", "setting": "dose: 100.0 mg/kg/injection, schedule: Q04DX002 (ip), vehicle: Klucel (hydroxypropylcellulose) (HPC)", "value": "97 % of control"},
      {"measurement": "T/C", "setting": "dose: 200.0 mg/kg/injection, schedule: Q04DX002 (ip), vehicle: Klucel (hydroxypropylcellulose) (HPC)", "value": "95 % of control"}
    ]},
    {"smiles": "CC(=O)N/C(=C\\c1ccc(Cl)cc1)C(=O)c1ccc(C)cc1", "values": [
      {"measurement": "T/C", "setting": "dose: 50.0 mg/kg/injection, schedule: Q01DX001 (ip), vehicle: saline with Tween-80", "value": "99 % of control"},
      {"measurement": "T/C", "setting": "[1]", "value": "97 % of control"},
      {"measurement": "T/C", "setting": "[2]", "value": "97 % of control"}
    ]},
    {"smiles": "CN(C)c1ccc(C(=O)C(=O)c2ccccc2)cc1", "values": [
      {"measurement": "T/C", "setting": "dose: 100.0 mg/kg/injection, schedule: Q04DX003 (ip), vehicle: Klucel (hydroxypropylcellulose) (HPC)", "value": "106 % of control"},
      {"measurement": "T/C", "setting": "dose: 200.0 mg/kg/injection, schedule: Q04DX003 (ip), vehicle: Klucel (hydroxypropylcellulose) (HPC)", "value": "99 % of control"},
      {"measurement": "T/C", "setting": "dose: 400.0 mg/kg/injection, schedule: Q04DX003 (ip), vehicle: Klucel (hydroxypropylcellulose) (HPC)", "value": "100 % of control"}
    ]},
    {"smiles": "COc1cc2c(cc1OC)C(C#N)(C(c1ccccc1)c1ccccc1)N(C(=O)c1ccccc1)C=C2", "note": "(stereo not drawn)", "values": [
      {"measurement": "T/C", "setting": "dose: 60.0 mg/kg/injection, schedule: Q01DX005 (ip), vehicle: saline with Tween-80", "value": "100 % of control"},
      {"measurement": "T/C", "setting": "dose: 120.0 mg/kg/injection, schedule: Q01DX005 (ip), vehicle: saline with Tween-80", "value": "100 % of control"},
      {"measurement": "T/C", "setting": "dose: 240.0 mg/kg/injection, schedule: Q01DX005 (ip), vehicle: saline with Tween-80", "value": "96 % of control"}
    ]},
    {"smiles": "O=C(NC1CCCCC1)OCc1c(COC(=O)NC2CCCCC2)c(-c2ccc(Cl)c(Cl)c2)n2c1CCC2", "values": [
      {"measurement": "T/C", "setting": "[3]", "value": "94 % of control"},
      {"measurement": "T/C", "setting": "dose: 12.5 mg/kg/injection, schedule: Q01DX009 (ip), vehicle: Klucel (hydroxypropylcellulose) (HPC)", "value": "119 % of control"},
      {"measurement": "T/C", "setting": "dose: 25.0 mg/kg/injection, schedule: Q01DX009 (ip), vehicle: saline with Tween-80", "value": "150 % of control and 168 % of control"},
      {"measurement": "T/C", "setting": "[4]", "value": "161 % of control"},
      {"measurement": "T/C", "setting": "dose: 50.0 mg/kg/injection, schedule: Q01DX009 (ip), vehicle: saline with Tween-80", "value": "166 % of control and 170 % of control and 174 % of control"},
      {"measurement": "T/C", "setting": "dose: 100.0 mg/kg/injection, schedule: Q01DX009 (ip), vehicle: Klucel (hydroxypropylcellulose) (HPC)", "value": "189 % of control"},
      {"measurement": "T/C", "setting": "dose: 200.0 mg/kg/injection, schedule: Q01DX009 (ip), vehicle: saline with Tween-80", "value": "91 % of control"}
    ]},
    {"smiles": "COC1OC2COc3ccccc3OC2C(NC(N)=S)C1OC", "note": "(stereo not drawn)", "values": [
      {"measurement": "T/C", "setting": "dose: 60.0 mg/kg/injection, schedule: Q01DX005 (ip), vehicle: Klucel (hydroxypropylcellulose) (HPC)", "value": "105 % of control"},
      {"measurement": "T/C", "setting": "dose: 120.0 mg/kg/injection, schedule: Q01DX005 (ip), vehicle: Klucel (hydroxypropylcellulose) (HPC)", "value": "105 % of control"},
      {"measurement": "T/C", "setting": "dose: 240.0 mg/kg/injection, schedule: Q01DX005 (ip), vehicle: Klucel (hydroxypropylcellulose) (HPC)", "value": "105 % of control"}
    ]},
    {"smiles": "C[C@]12CCNC(=O)C=C1CC[C@@H]1C2CC[C@@]2(C)C1CC[C@@H]2OC(=O)COc1ccc(N(CCCl)CCCl)cc1", "note": "(stereo partly drawn)", "values": [
      {"measurement": "T/C", "setting": "dose: 100.0 mg/kg/injection, schedule: Q04DX002 (ip), vehicle: saline with Tween-80", "value": "159 % of control"},
      {"measurement": "T/C", "setting": "dose: 200.0 mg/kg/injection, schedule: Q04DX002 (ip), vehicle: saline with Tween-80", "value": "199 % of control"},
      {"measurement": "T/C", "setting": "dose: 400.0 mg/kg/injection, schedule: Q04DX002 (ip), vehicle: saline with Tween-80", "value": "225 % of control"}
    ]},
    {"smiles": "CC1=NN(C(=O)c2ccccc2)C(=O)C1N=Nc1ccc(S(N)(=O)=O)cc1", "note": "(stereo not drawn)", "values": [
      {"measurement": "T/C", "setting": "dose: 50.0 mg/kg/injection, schedule: Q01DX001 (ip), vehicle: Klucel (hydroxypropylcellulose) (HPC)", "value": "101 % of control"},
      {"measurement": "T/C", "setting": "dose: 100.0 mg/kg/injection, schedule: Q01DX001 (ip), vehicle: Klucel (hydroxypropylcellulose) (HPC)", "value": "94 % of control"},
      {"measurement": "T/C", "setting": "dose: 200.0 mg/kg/injection, schedule: Q01DX001 (ip), vehicle: Klucel (hydroxypropylcellulose) (HPC)", "value": "96 % of control"},
      {"measurement": "T/C", "setting": "dose: 400.0 mg/kg/injection, schedule: Q01DX001 (ip), vehicle: Klucel (hydroxypropylcellulose) (HPC)", "value": "90 % of control"}
    ]},
    {"smiles": "Nc1nc(Sc2ccc([N+](=O)[O-])c3nonc23)c2ncn(C3OC(CO)C(O)C3O)c2n1", "note": "(stereo not drawn)", "values": [
      {"measurement": "T/C", "setting": "dose: 3.12 mg/kg/injection, schedule: Q01DX009 (ip), vehicle: Klucel (hydroxypropylcellulose) (HPC)", "value": "113 % of control"},
      {"measurement": "T/C", "setting": "[3]", "value": "113 % of control"},
      {"measurement": "T/C", "setting": "dose: 25.0 mg/kg/injection, schedule: Q01DX009 (ip), vehicle: Klucel (hydroxypropylcellulose) (HPC)", "value": "122 % of control"},
      {"measurement": "T/C", "setting": "[4]", "value": "102 % of control and 118 % of control"}
    ]}
  ]
}
